According to the Kinase Knowledgebase extract (Sharma et al. 2016):

biological target: PIK3CA (bovine) (UniProt P32871); experiment: Inhibition of PIK3CA Kinase Activity
Sequence (P32871 whole entry, looked up): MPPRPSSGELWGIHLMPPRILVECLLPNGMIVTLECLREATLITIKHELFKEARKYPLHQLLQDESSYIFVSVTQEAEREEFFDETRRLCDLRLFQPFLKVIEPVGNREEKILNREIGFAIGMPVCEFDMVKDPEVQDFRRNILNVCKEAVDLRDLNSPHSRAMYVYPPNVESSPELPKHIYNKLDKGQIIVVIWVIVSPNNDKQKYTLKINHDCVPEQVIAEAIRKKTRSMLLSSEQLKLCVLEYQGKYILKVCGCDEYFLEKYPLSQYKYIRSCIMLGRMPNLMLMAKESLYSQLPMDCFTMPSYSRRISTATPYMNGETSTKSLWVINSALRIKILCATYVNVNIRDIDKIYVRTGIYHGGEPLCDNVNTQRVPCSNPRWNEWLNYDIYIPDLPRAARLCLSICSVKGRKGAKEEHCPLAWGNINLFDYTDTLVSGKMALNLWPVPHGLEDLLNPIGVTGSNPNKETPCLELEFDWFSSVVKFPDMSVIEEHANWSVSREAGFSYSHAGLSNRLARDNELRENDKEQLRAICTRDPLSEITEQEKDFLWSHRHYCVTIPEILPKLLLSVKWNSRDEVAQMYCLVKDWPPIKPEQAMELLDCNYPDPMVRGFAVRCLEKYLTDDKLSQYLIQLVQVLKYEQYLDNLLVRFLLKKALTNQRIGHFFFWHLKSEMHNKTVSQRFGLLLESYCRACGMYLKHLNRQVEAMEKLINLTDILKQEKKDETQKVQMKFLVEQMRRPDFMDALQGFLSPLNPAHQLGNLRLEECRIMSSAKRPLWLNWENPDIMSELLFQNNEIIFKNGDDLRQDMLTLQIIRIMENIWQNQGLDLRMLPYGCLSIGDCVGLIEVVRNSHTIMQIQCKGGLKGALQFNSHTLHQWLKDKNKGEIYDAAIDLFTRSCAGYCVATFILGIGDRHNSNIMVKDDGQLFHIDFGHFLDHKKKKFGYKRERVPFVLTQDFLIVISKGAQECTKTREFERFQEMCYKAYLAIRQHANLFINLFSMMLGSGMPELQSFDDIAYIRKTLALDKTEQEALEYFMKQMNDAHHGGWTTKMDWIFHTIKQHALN

`Oc1ccc2nc(-c3ccccc3O)nc(N3CCOCC3)c2c1` and `Nc1ccccc1-c1nc(N2CCOCC2)c2cc(O)ccc2n1` are within 1.5-fold of each other in IC50: 2900 nM for the first, 3900 nM for the second.

First: Oc1ccc2nc(-c3cccc(F)c3)nc(N3CCOCC3)c2c1
Second: Oc1cccc(-c2nc(N3CCOCC3)c3cc(O)ccc3n2)c1
The IC50 of the first is 24-fold higher: 1800 nM for the first, 75 nM for the second.

Compared with `Oc1cccc(-c2nc(N3CCOCC3)c3ccccc3n2)c1`, `Oc1ccc2c(N3CCOCC3)nc(-c3ccccc3)nc2c1` is 180-fold higher in IC50: 56 nM for the first, 9800 nM for the second. The first is the more potent here.

`OCc1ccc(-c2nc(N3CCOCC3)c3cc(O)ccc3n2)cc1` and `Oc1ccc(-c2nc(N3CCOCC3)c3cc(O)ccc3n2)cc1` are within 1.5-fold of each other in IC50: 3700 nM for the first, 2800 nM for the second.

Compared with `O=C1CCN(c2nc(-c3ccccc3)nc3ccc(O)cc23)CC1`, `Oc1ccc2nc(-c3ccccc3)nc(N3CCCCC3)c2c1` is higher in IC50: 21000 nM for the first, greater than 60000 nM for the second. The first is the more potent here.

Going from `c1ccc(-c2nc(N3CCOCC3)c3ccccc3n2)cc1` to `Oc1ccc2nc(-c3ccccc3)nc(N3CCOCC3)c2c1`, the IC50 falls from 14000 nM to 1300 nM (11-fold). The second is the more potent here.

Compared with `Nc1cccc(-c2nc(N3CCOCC3)c3cc(O)ccc3n2)c1`, `OCc1cccc(-c2nc(N3CCOCC3)c3cc(O)ccc3n2)c1` is 4.4-fold lower in IC50: 440 nM for the first, 100 nM for the second. The second is the more potent here.

First: Oc1cccc(-c2nc(N3CCOCC3)c3sccc3n2)c1
Second: Oc1cccc(-c2nc(N3CCOCC3)c3ccncc3n2)c1
The IC50 of the first is 9.5-fold lower: 2 nM for the first, 19 nM for the second. The first is the more potent here.

Compared with `Oc1cccc2nc(-c3ccccc3)nc(N3CCOCC3)c12`, `COc1ccc2nc(-c3ccccc3)nc(N3CCOCC3)c2c1` is lower in IC50: greater than 30000 nM for the first, 2100 nM for the second. The second is the more potent here.

Going from `Oc1cccc(-c2nc(N3CCOCC3)c3ncccc3n2)c1` to `Oc1cccc(-c2nc(N3CCOCC3)c3cnccc3n2)c1`, the IC50 falls from 27 nM to 13 nM (2.1-fold). The second is the more potent here.

First: COc1cccc(-c2nc(N3CCOCC3)c3cc(O)ccc3n2)c1
Second: Nc1ccc(-c2nc(N3CCOCC3)c3cc(O)ccc3n2)cc1
The IC50 of the first is 1.6-fold lower: 600 nM for the first, 930 nM for the second.

`Oc1ccc2nc(-c3ccccc3)nc(N3CCC(O)CC3)c2c1` and `COCCNc1nc(-c2ccccc2)nc2ccc(O)cc12` are within 1.5-fold of each other in IC50: 12000 nM for the first, 15000 nM for the second.

biological target: PIK3CB (UniProt P42338); experiment: Inhibition of PIK3CB Kinase Activity
Sequence (P42338 whole entry, looked up): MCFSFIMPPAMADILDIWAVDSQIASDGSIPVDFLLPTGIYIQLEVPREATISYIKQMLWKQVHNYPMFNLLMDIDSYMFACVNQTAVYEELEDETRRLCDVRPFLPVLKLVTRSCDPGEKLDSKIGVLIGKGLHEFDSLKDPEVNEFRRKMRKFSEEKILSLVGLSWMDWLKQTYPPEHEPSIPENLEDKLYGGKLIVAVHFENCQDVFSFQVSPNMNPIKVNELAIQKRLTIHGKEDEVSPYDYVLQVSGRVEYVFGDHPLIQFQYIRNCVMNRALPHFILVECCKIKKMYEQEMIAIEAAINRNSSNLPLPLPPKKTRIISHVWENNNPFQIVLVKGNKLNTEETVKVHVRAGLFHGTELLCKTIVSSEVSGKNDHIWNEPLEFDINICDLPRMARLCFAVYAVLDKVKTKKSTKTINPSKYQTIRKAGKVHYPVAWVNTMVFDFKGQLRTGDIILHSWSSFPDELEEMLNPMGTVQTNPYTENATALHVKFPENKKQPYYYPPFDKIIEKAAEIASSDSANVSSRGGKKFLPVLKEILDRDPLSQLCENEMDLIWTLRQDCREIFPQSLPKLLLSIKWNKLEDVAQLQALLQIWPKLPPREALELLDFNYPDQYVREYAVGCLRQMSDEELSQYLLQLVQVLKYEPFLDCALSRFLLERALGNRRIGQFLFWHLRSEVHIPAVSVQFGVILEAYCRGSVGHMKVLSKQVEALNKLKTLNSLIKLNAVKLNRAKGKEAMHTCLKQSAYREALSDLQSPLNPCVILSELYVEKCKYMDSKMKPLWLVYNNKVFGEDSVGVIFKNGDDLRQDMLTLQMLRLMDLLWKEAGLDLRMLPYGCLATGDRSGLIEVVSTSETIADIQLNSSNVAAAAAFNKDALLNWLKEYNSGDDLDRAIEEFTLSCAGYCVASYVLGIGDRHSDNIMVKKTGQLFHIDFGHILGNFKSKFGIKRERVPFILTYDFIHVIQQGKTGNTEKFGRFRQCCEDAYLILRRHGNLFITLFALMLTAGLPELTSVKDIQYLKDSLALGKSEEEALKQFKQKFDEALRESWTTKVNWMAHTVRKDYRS

`Oc1cccc(-c2nc(N3CCOCC3)c3sccc3n2)c1` showed an IC50 of 16 nM.

biological target: PIK3CG (UniProt P48736); experiment: Inhibition of PIK3CG Kinase Activity
Sequence (P48736 whole entry, looked up): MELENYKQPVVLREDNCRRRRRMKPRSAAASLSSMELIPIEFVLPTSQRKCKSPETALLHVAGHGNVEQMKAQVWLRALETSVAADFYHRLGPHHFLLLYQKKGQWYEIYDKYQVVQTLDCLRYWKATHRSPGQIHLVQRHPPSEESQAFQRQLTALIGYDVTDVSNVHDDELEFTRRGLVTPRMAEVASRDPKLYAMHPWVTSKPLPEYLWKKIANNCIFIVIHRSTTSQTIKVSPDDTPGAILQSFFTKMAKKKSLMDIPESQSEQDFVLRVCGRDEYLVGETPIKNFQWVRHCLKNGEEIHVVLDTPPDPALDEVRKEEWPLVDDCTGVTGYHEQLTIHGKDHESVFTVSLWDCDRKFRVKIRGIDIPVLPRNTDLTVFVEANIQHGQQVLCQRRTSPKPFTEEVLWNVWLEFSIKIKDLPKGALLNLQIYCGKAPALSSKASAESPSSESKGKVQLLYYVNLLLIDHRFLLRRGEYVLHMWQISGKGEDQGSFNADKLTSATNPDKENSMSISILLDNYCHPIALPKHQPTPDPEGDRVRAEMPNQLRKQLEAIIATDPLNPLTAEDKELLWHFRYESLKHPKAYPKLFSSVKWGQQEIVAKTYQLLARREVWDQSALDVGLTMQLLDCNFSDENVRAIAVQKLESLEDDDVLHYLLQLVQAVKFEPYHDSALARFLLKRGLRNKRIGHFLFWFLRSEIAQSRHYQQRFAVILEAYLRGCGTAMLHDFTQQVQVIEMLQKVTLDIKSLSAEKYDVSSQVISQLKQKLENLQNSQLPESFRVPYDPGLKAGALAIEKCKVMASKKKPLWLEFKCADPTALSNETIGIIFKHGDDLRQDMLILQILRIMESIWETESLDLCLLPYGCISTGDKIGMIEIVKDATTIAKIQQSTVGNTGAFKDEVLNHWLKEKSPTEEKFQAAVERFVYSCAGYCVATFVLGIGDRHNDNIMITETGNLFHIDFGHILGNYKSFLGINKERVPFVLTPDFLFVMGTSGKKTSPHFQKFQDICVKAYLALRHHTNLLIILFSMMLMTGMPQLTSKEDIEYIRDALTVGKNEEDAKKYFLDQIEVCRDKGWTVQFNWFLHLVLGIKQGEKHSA

In the case of `Oc1cccc(-c2nc(N3CCOCC3)c3sccc3n2)c1`, the IC50 is reported as 660 nM.

biological target: CDK2 (UniProt P24941); experiment: Enzyme Assay

`Oc1cccc(-c2nc(N3CCOCC3)c3sccc3n2)c1` gave an IC50 of 28000 nM.
